Data as given in ChEMBL document CHEMBL1143539, “A fluorimetric assay for the spontaneous release of an N7-alkylguanine residue from duplex DNA” (Bioorg Med Chem Lett, 2005).

Assays:
Assay type in all cases: ADME
[1] = Half-life by fluorescence method at 25 degrees C
[2] = Half-life by fluorescence method at 37 degrees C
[3] = Half-life by fluorescence method at 30 degrees C

Question: For `C[C@H]1NC(=O)CC2([C@@](C)(O)C(=O)O)CC[C@@](C)(n3cnc4nc(N)nc(O)c43)[C@@H](S2)[C@@H](O)C(=O)/C=C/C=C\c2csc1n2`, which half-life [1] is on record?
Answer: 11 h

Question: And the half-life [2]?
Answer: 2.2 h

Question: What about the half-life [3] of the same compound?
Answer: 4.6 h
